What follows are compounds tested on B cell (assay: B cell proliferation).
Format: cell-based
`Cc1cccc2cc(Cn3nc(-c4cccc(F)c4)c4c(N)ncnc43)n(-c3ccccc3F)c(=O)c12` [Compound 40] was tested, and the EC50 was under 10000 nM.
In the case of `CC(Nc1ncnc2[nH]cnc12)c1cc2ccccc2c(=O)n1-c1ccccc1` (centres unmarked) [Compound 220], the EC50 is reported as under 100 nM.
In the case of `Cc1ccccc1-n1c(Cn2nc(C#N)c3c(N)ncnc32)cc2cccc(C)c2c1=O` [Compound 170], the EC50 is reported as under 100 nM.
For `Cc1cccc2cc(Cn3nc(-c4cc(O)cc(F)c4)c4c(N)ncnc43)n(C3CCCC3)c(=O)c12` [Compound 63], the EC50 was under 100 nM.
With `CCc1ccccc1-n1c(Cn2nc(-c3cccc(O)c3)c3c(N)ncnc32)cc2cccc(C)c2c1=O` [Compound 88] the EC50 was under 100 nM.
For `CC(=O)Nc1nc2cc(-c3nn(Cc4cc5cccc(C)c5c(=O)n4-c4ccccc4C)c4ncnc(N)c34)ccc2o1` [Compound 251], the EC50 was under 100 nM.
Compound `Cc1cccc2cc([C@H](C)Nc3ncnc4[nH]cnc34)n(C(C)C)c(=O)c12` [Compound 230] has an EC50 of under 100 nM.
`Cc1cccc2cc(C(C)Nc3ncnc4[nH]cnc34)n(CCN3CCOCC3)c(=O)c12` (centres unmarked) [Compound 232] was tested, and the EC50 was under 100 nM.
Compound `Cc1ccccc1-n1c(Cn2nc(-c3ccc4ncnc(N)c4c3)c3c(N)ncnc32)cc2cccc(C)c2c1=O` [Compound 152] has an EC50 of under 1000 nM.
`Cc1ccccc1-n1c(Cn2nc(Br)c3c(N)ncnc32)cc2cccc(C)c2c1=O` [Compound 19] gave an EC50 of under 1000 nM.
Work on `CCC(Nc1ncnc2[nH]cnc12)c1cc2cccc(C)c2c(=O)n1-c1cc(F)cc(F)c1` (centres unmarked) [Compound 224] yielded an EC50 of under 100 nM.
With `COc1ccc(-c2nn(Cc3cc4cccc(C)c4c(=O)n3-c3ccccc3C)c3ncnc(N)c23)cc1` [Compound 45] the EC50 was under 1000 nM.
Work on `Cc1cccnc1-n1c(Cn2nc(-c3ccc(F)c(O)c3)c3c(N)ncnc32)cc2cccc(C)c2c1=O` [Compound 68] yielded an EC50 of under 100 nM.
Compound `Cc1cccc2cc(Cn3nc(-c4cccc(O)c4)c4c(N)ncnc43)n(C)c(=O)c12` [Compound 124] has an EC50 of under 1000 nM.
Compound `Cc1cccc2cc(Cn3nc(C#C[C@@H](C)O)c4c(N)ncnc43)n(-c3ccccc3F)c(=O)c12` [Compound 28] has an EC50 of under 1000 nM.
In the case of `CC(C)n1c(Cn2nc(-c3cccc(O)c3)c3c(N)ncnc32)cc2ccccc2c1=O` [Compound 135], the EC50 is reported as under 1000 nM.
Work on `Cc1ccccc1-n1c(Cn2nc(-c3ccc4nc(N)oc4c3)c3c(N)ncnc32)cc2cccc(C)c2c1=O` [Compound 243] yielded an EC50 of under 1000 nM.
Work on `Cc1cccc2cc(Cn3nc(-c4cccc(O)c4)c4c(N)ncnc43)n(-c3ccccc3OCCN3CCOCC3)c(=O)c12` [Compound 109] yielded an EC50 of under 100 nM.
`Cc1cccc2cc(Cn3nc(C#C[C@@H](C)O)c4c(N)ncnc43)n(-c3ccccc3O)c(=O)c12` [Compound 91] showed an EC50 of under 1000 nM.
Work on `Cc1ccccc1-n1c(Cn2nc(-c3cc(O)cc(F)c3)c3c(N)ncnc32)cc2cccc(F)c2c1=O` [Compound 55] yielded an EC50 of under 100 nM.
Compound `CCc1ccccc1-n1c(Cn2nc(-c3cc(O)cc(F)c3)c3c(N)ncnc32)cc2cccc(C)c2c1=O` [Compound 89] has an EC50 of under 100 nM.
With `CCC(Nc1ncnc2[nH]cnc12)c1cc2cccc(C)c2c(=O)n1-c1ccccc1` (centres unmarked) [Compound 211] the EC50 was under 100 nM.
For `Cc1cccc2cc(Cn3nc(C#C[C@@H](C)O)c4c(N)ncnc43)n(C(C)C)c(=O)c12` [Compound 61], the EC50 was under 1000 nM.
`CC(=O)Nc1nc2ccc(-c3nn(Cc4cc5cccc(C)c5c(=O)n4-c4ccccc4)c4ncnc(N)c34)cc2s1` [Compound 177] gave an EC50 of under 100 nM.
With `Cc1cccc2cc(Cn3cnc4c(N)ncnc43)n(-c3ccccc3F)c(=O)c12` [Compound 1] the EC50 was under 10000 nM.
For `CC(C)n1c(Cn2nc(-c3cc(O)cc(F)c3)c3c(N)ncnc32)cc2cccc(Cl)c2c1=O` [Compound 138], the EC50 was under 100 nM.
`Cc1cccc2cc(Cn3nc(-c4cn[nH]c4)c4c(N)ncnc43)n(-c3ccccc3C(C)C)c(=O)c12` [Compound 185] showed an EC50 of under 100 nM.
Work on `Cc1cccc2cc(Cn3nc(-c4cn[nH]c4)c4c(N)ncnc43)n(-c3ccccc3F)c(=O)c12` [Compound 161] yielded an EC50 of under 1000 nM.
In the case of `Cc1cccc2cc(Cn3nc(-c4cccc(O)c4)c4c(N)ncnc43)n(C(C)C)c(=O)c12` [Compound 62], the EC50 is reported as under 100 nM.
`Cc1cccc2cc([C@H](C)Nc3ncnc4[nH]nc(C#N)c34)n(-c3ccccc3)c(=O)c12` [Compound 255] gave an EC50 of under 100 nM.
With `Cc1cccnc1-n1c(Cn2nc(Cl)c3c(N)ncnc32)cc2cccc(C)c2c1=O` [Compound 18] the EC50 was under 1000 nM.
With `Cc1ccccc1-n1c(Cn2nc(-c3ccc(O)cc3)c3c(N)ncnc32)cc2cccc(C)c2c1=O` [Compound 36] the EC50 was under 1000 nM.
For `COc1ccccc1-n1c(Cn2nc(I)c3c(N)ncnc32)cc2cccc(C)c2c1=O` [Compound 70], the EC50 was under 1000 nM.
`Cc1ccccc1-n1c(Cn2nc(-c3ccc(F)c(O)c3)c3c(N)ncnc32)cc2cccc(C)c2c1=O` [Compound 12] was tested, and the EC50 was under 100 nM.
For `Cc1cccc2cc(Cn3nc(-c4ccc(F)c(O)c4)c4c(N)ncnc43)n(C(C)C)c(=O)c12` [Compound 67], the EC50 was under 100 nM.
In the case of `Cc1ccccc1-n1c(Cn2nc(CF)c3c(N)ncnc32)cc2cccc(C)c2c1=O` [Compound 310], the EC50 is reported as under 100 nM.
Compound `Cc1cccc2cc(Cn3nc(C#C[C@@H](C)O)c4c(N)ncnc43)n(-c3ccccc3Cl)c(=O)c12` [Compound 98] has an EC50 of under 1000 nM.
`Cc1cccc2cc(Cn3nc(/C=C4/SC(=O)NC4=O)c4c(N)ncnc43)n(-c3ccccc3F)c(=O)c12` [Compound 171] gave an EC50 of under 100 nM.
With `Cc1cccc2cc(Cn3nc(C(F)F)c4c(N)ncnc43)n(-c3ccccc3)c(=O)c12` [Compound 308] the EC50 was under 100 nM.
In the case of `Cc1cccnc1-n1c(Cn2nc(I)c3c(N)ncnc32)cc2cccc(C)c2c1=O` [Compound 15], the EC50 is reported as under 1000 nM.
For `Cc1cccc2cc(C(C)Nc3ncnc4[nH]cnc34)n(-c3ccccc3F)c(=O)c12` (centres unmarked) [Compound 167], the EC50 was under 100 nM.
Compound `Cc1cccc2cc(Cn3nc(I)c4c(N)ncnc43)n(-c3ccccc3Cl)c(=O)c12` [Compound 76] has an EC50 of under 1000 nM.
Work on `Cc1cccc2cc([C@H](C)Nc3ncnc4[nH]cc(F)c34)n(C3CC3)c(=O)c12` [Compound 278] yielded an EC50 of under 100 nM.
With `Cc1cccc2cc(Cn3nc(-c4cc(O)cc(F)c4)c4c(N)ncnc43)n(-c3ccccc3)c(=O)c12` [Compound 147] the EC50 was under 100 nM.
Work on `Cc1ccccc1-n1c(Cn2nc(-c3cccc(Cl)c3)c3c(N)ncnc32)cc2cccc(C)c2c1=O` [Compound 39] yielded an EC50 of under 10000 nM.
With `Cc1ccccc1-n1c(Cn2nc(CC#N)c3c(N)ncnc32)cc2cccc(C)c2c1=O` [Compound 312] the EC50 was under 1000 nM.
In the case of `C=Cc1nn(Cc2cc3cccc(C)c3c(=O)n2-c2ccccc2)c2ncnc(N)c12` [Compound 301], the EC50 is reported as under 100 nM.
For `Cc1ccccc1-n1c(Cn2nc(-c3ccc(Cl)c(O)c3)c3c(N)ncnc32)cc2cccc(C)c2c1=O` [Compound 23], the EC50 was under 100 nM.
In the case of `Cc1cccc2cc(Cn3nc(-c4cn[nH]c4)c4c(N)ncnc43)n(-c3ccccc3Cl)c(=O)c12` [Compound 188], the EC50 is reported as under 100 nM.
`Cc1cccc2cc(Cn3nc(I)c4c(N)ncnc43)n(C3CC3)c(=O)c12` [Compound 86] was tested, and the EC50 was under 1000 nM.
Work on `Cc1cccnc1-n1c(Cn2nc(-c3cc(O)cc(F)c3)c3c(N)ncnc32)cc2cccc(C)c2c1=O` [Compound 16] yielded an EC50 of under 100 nM.
`Cc1cccc2cc(Cn3nc(-c4cn[nH]c4)c4c(N)ncnc43)n(-c3ccccc3C(F)(F)F)c(=O)c12` [Compound 214] gave an EC50 of under 100 nM.
`Cc1cccc2cc([C@H](C)Nc3nc(Cl)nc4[nH]cnc34)n(-c3ccccc3)c(=O)c12` [Compound 244] gave an EC50 of under 100 nM.
With `Cc1cccc2cc(Cn3nc(Br)c4c(N)ncnc43)n(-c3ccccc3F)c(=O)c12` [Compound 35] the EC50 was under 1000 nM.
With `Cc1cccc2cc(Cn3nc(-c4ccc5oc(N)nc5c4)c4c(N)ncnc43)n(C3CCC3)c(=O)c12` [Compound 208] the EC50 was under 100 nM.
With `CNC(=O)Nc1nc2ccc(-c3nn(Cc4cc5cccc(C)c5c(=O)n4-c4ccccc4C)c4ncnc(N)c34)cc2s1` [Compound 148] the EC50 was under 100 nM.
`CCc1ccccc1-n1c(Cn2nc(C#C[C@@H](C)O)c3c(N)ncnc32)cc2cccc(C)c2c1=O` [Compound 99] gave an EC50 of under 100 nM.
In the case of `Cc1cccc2cc(Cn3nc(Cl)c4c(N)ncnc43)n(-c3ccccc3F)c(=O)c12` [Compound 34], the EC50 is reported as under 1000 nM.
In the case of `COc1cc(-c2nn(Cc3cc4cccc(C)c4c(=O)n3-c3ccccc3F)c3ncnc(N)c23)ccc1Cl` [Compound 22], the EC50 is reported as under 10000 nM.
In the case of `Cc1cccc2cc([C@H](C)Nc3nc(N)ncc3Cl)n(-c3ccccc3)c(=O)c12` [Compound 249], the EC50 is reported as under 100 nM.
With `Cc1cccc2cc(Cn3nc(I)c4c(N)ncnc43)n(-c3ccccc3F)c(=O)c12` [Compound 2] the EC50 was under 10000 nM.
`CC(=O)Nc1nc2ccc(-c3nn(Cc4cc5cccc(C)c5c(=O)n4-c4ccccc4C)c4ncnc(N)c34)cc2[nH]1` [Compound 296] was tested, and the EC50 was under 100 nM.
For `Cc1cccc2cc(Cn3nc(I)c4c(N)ncnc43)n(C3CCC3)c(=O)c12` [Compound 105], the EC50 was under 1000 nM.
`Cc1cccc2cc(Cn3nc(C#C[C@@H](C)O)c4c(N)ncnc43)n(-c3ccccc3C(C)C)c(=O)c12` [Compound 83] gave an EC50 of under 100 nM.
With `Cc1ccccc1-n1c(Cn2nc(I)c3c(N)ncnc32)cc2ccccc2c1=O` [Compound 31] the EC50 was under 1000 nM.
`Cc1cccc2cc([C@H](C)Nc3ncnc4[nH]cnc34)n(-c3cccc(F)c3)c(=O)c12` [Compound 290] was tested, and the EC50 was under 100 nM.
For `Cc1cccc2cc(Cn3nc(-c4ccc(Cl)c(O)c4)c4c(N)ncnc43)n(C3CCCC3)c(=O)c12` [Compound 71], the EC50 was under 10000 nM.
For `Cc1cccc2cc(Cn3nc(-c4ccc5nc(N)[nH]c5c4)c4c(N)ncnc43)n(-c3ccccc3)c(=O)c12` [Compound 302], the EC50 was under 100 nM.
Compound `Cc1ccccc1-n1c(Cn2nc(-c3ccc4cc[nH]c4c3)c3c(N)ncnc32)cc2cccc(C)c2c1=O` [Compound 50] has an EC50 of under 1000 nM.
Compound `Cc1cccc2cc(Cn3nc(-c4ccc(O)c(Cl)c4)c4c(N)ncnc43)n(-c3ccccc3F)c(=O)c12` [Compound 26] has an EC50 of under 10000 nM.
In the case of `CC(=O)Nc1nc2ccc(-c3nn(Cc4cc5cccc(C)c5c(=O)n4C4CCC4)c4ncnc(N)c34)cc2s1` [Compound 159], the EC50 is reported as under 100 nM.
Compound `Cc1cccc2cc(Cn3nc(-c4ccc5oc(N)nc5c4)c4c(N)ncnc43)n(C3CC3)c(=O)c12` [Compound 201] has an EC50 of under 100 nM.
For `Cc1cccc2cc([C@H](C)Nc3ncnc4[nH]nc(C(N)=O)c34)n(-c3ccccc3)c(=O)c12` [Compound 256], the EC50 was under 100 nM.
In the case of `CC(=O)Nc1nc2ccc(-c3nn(Cc4cc5ccccc5c(=O)n4-c4ccccc4C)c4ncnc(N)c34)cc2s1` [Compound 168], the EC50 is reported as under 100 nM.

— patent US20140120060A1, “TREATMENT OF RHEUMATOID ARTHRITIS AND ASTHMA USING PI3 KINASE INHIBITORS” (INFINITY PHARMACEUTICALS, INC., priority 2012, published 2014)
